Measured values from patent US9815850B2, “Compounds, compositions and methods” (Denali Therapeutics Inc., priority 2016, dated 2017).
pIC50: −log10 of the molar value.

Target: GST-hRIPK1 (8-327) (Homo sapiens (Human), UniProt Q13546)
Test: Fluorescent Polarization Binding (FP Binding) assay
Conditions: 10 nM GST-hRIPK1 (8-327), 5 nM fluorescent labeled ligand; read-out: FP IC50
Method: Fluorescent Polarization Binding (FP Binding) assay (Berger S. B. et al. […] Maki J. L. et al. […] Test Compounds were serially diluted in DMSO at 100 fold final concentrations in the assay (1% DMSO final). […] For negative control the enzyme addition was replaced by assay buffer only. After addition of 5 μL of fluorescent labeled ligand at twice the final concentrations in assay buffer, the plate was incubated at RT for 30 min.

GST-hRIPK1 (8-327), sequence (Q13546 8-327): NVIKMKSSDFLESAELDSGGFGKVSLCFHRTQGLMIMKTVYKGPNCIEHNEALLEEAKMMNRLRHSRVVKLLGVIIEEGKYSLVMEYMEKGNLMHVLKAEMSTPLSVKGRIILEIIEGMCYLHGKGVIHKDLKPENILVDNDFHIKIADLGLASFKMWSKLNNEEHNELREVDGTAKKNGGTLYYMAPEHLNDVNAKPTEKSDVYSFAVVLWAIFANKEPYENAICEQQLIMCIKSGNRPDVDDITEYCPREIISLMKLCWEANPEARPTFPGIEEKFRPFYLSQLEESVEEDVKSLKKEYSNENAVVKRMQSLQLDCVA

| Compound | pIC50 |
| --- | --- |
| CN1C(=O)[C@@H](NC(=O)c2cc(Cc3ccccc3)on2)CCc2sc(Cl)cc21 (stereo in doubt) [Example 1A, 5-Benzyl-N-(2-chloro-4-methyl-5-oxo-4H,5H,6H,7H,8H-thieno[3,2-b]azepin-6-yl)-1,2-oxazole-3-carboxamide] | 6.00 to 10.00 |
| CN1C(=O)[C@H](NC(=O)c2cc(Cc3ccccc3)on2)CCc2sc(Cl)cc21 (stereo in doubt) [Example 1B, 5-Benzyl-N-(2-chloro-4-methyl-5-oxo-4H,5H,6H,7H,8H-thieno[3,2-b]azepin-6-yl)-1,2-oxazole-3-carboxamide] | 6.00 to 10.00 |
| CN1C(=O)C(NC(=O)c2cc(Cc3ccccc3)on2)[C@@H]2C[C@@H]2c2ccccc21 (stereo in doubt) [Example 7B, 5-benzyl-N-((2S)-4-methyl-3-oxo-1,1a,2,3,4,8b-hexahydrobenzo[b]cyclopropa[d]azepin-2-yl)isoxazole-3-carboxamide] | < 5.00 |
| CN1C(=O)[C@@H](NC(=O)c2cc(Cc3ccccc3)on2)[C@H]2C[C@H]2c2ccccc21 [Example 7A, 5-benzyl-N-((2S)-4-methyl-3-oxo-1,1a,2,3,4,8b-hexahydrobenzo[b]cyclopropa[d]azepin-2-yl)isoxazole-3-carboxamide] | 6.00 to 10.00 |
| CN1C(=O)[C@@H](NC(=O)c2cc(Cc3ccccc3)[nH]n2)[C@H]2C[C@H]2c2ccccc21 [Example 60A, 5-benzyl-N-((1aS,2S,8bR)-4-methyl-3-oxo-1,1a,2,3,4,8b-hexahydrobenzo[b]cyclopropa[d]azepin-2-yl)-1H-pyrazole-3-carboxamide] | 6.00 to 10.00 |
| CN1C(=O)[C@H](NC(=O)c2cc(Cc3ccccc3)[nH]n2)[C@@H]2C[C@@H]2c2ccccc21 [Example 60B, 5-benzyl-N-((1aR,2R,8bS)-4-methyl-3-oxo-1,1a,2,3,4,8b-hexahydrobenzo[b]cyclopropa[d]azepin-2-yl)-1H-pyrazole-3-carboxamide] | < 5.52 |
| CN1C(=O)[C@@H](NC(=O)c2coc(C3(c4ccccc4)CC3)n2)COc2ccccc21 [Example 61, (S)—N-(5-methyl-4-oxo-2,3,4,5-tetrahydrobenzo[b][1,4]oxazepin-3-yl)-2-(1-phenylcyclopropyl)oxazole-4-carboxamide] | 6.00 to 10.00 |

Other lines, results leading:

| pIC50 | Compound |
| --- | --- |
| 5.00 to 6.00 | CN1C(=O)[C@H](NC(=O)c2nnc(Cc3ccccc3)[nH]2)C[C@H](F)c2ccccc21 (mixture of isomers) [Example 11B] |
| 6.00 to 10.00 | CN1C(=O)C(NC(=O)c2cc(Cc3ccccc3)on2)CC(F)c2ccccc21 (stereo not drawn) [Example 2B, 5-benzyl-N-(5-fluoro-1-methyl-2-oxo-2,3,4,5-tetrahydro-1H-benzo[b]azepin-3-yl)isoxazole-3-carboxamide] |
| 6.00 to 10.00 | CN1C(=O)[C@@H](NC(=O)c2nnc(Cc3ccccc3)[nH]2)C[C@@H](F)c2ccccc21 [Example 11A] |
| 6.00 to 10.00 | CN1C(=O)[C@@H](NC(=O)c2nnc(Cc3ccccc3)[nH]2)C[C@H](F)c2ccccc21 [Example 12A] |
| 6.00 to 10.00 | CN1C(=O)[C@H](NC(=O)c2nnc(Cc3ccccc3)[nH]2)C[C@@H](F)c2ccccc21 [Example 12B] |
| 6.00 to 10.00 | CN1C(=O)[C@@H](NC(=O)c2cc(Cc3ccccc3)[nH]n2)CC2(CC2)c2ccccc21 [Example 59, 5-benzyl-N-[(3S)-1-methyl-2-oxo-1,2,3,4-tetrahydrospiro[l-benzazepine-5,1-cyclopropane]-3-yl]-1H-pyrazole-3-carboxamide] |
| 6.00 to 10.00 | O=C(N[C@H]1COc2cccnc2NC1=O)c1cc(C2(c3ccccc3)CC2)on1 [Example 62, (S)—N-(4-oxo-2,3,4,5-tetrahydropyrido[3,2-b][1,4]oxazepin-3-yl)-5-(1-phenylcyclopropyl)isoxazole-3-carboxamide] |
| 6.00 to 10.00 | CN1C(=O)[C@@H](NC(=O)c2ncc(C3(c4ccccc4)CC3)s2)COc2cccnc21 [Example 63, (S)—N-(5-methyl-4-oxo-2,3,4,5-tetrahydropyrido[3,2-b][1,4]oxazepin-3-yl)-5-(1-phenylcyclopropyl)thiazole-2-carboxamide] |
